Measured values reported in patent US20170296566A9, “METHODS AND COMPOSITIONS FOR TREATING AND/OR PREVENTING MUCOSITIS” (GLYCOMIMETICS, INC., priority 2013, published 2017).

What follows are molecules tested against T1, E-selectin (Homo sapiens, UniProt P16581) (assay: E-selectin competitive binding assay (inhibition of sLe^a binding to immobilized E-selectin/Ig chimera)). Conditions: biotinylated sLe^a polyacrylamide with streptavidin/HRP, TMB, 450 nm, read-out: IC50 (μM), E-Selectin Antagonist Activity.
T1 construct: fused on or other part: Immunoglobulin (Ig) portion fused to E-selectin as a handle for immobilisation
T1 sequence (P16581 22-175 limits assumed): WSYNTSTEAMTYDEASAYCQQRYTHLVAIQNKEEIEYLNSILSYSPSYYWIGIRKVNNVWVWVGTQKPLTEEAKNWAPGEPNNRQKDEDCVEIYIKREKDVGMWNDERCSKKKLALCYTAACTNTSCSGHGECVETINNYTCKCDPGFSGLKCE
Description: The inhibition assay to screen for and characterize glycomimetic antagonists of E-selectin is a competitive binding assay, which allows the determination of IC50 values. E-selectin/Ig chimera was immobilized in 96 well microtiter plates by incubation at 37° C. for 2 hours. To reduce nonspecific binding, bovine serum albumin was added to each well and incubated at room temperature for 2 hours. The plate was washed and serial dilutions of the test compounds were added to the wells in the presence of conjugates of biotinylated, sLe^a polyacrylamide with streptavidin/horseradish peroxidase and incubated for 2 hours at room temperature.
To determine the amount of sLe^a bound to immobilized E-selectin after washing, the peroxidase substrate, 3,3′,5,5′ tetramethylbenzidine (TMB) was added. After 3 minutes, the enzyme reaction was stopped by the addition of H3PO4, and the absorbance of light at a wavelength of 450 nm was determined.
In addition to reporting the absolute IC50 value as measured above, relative IC50 values (rIC50) are determined by a ratio of the IC50 measured for the test compound to that of an internal control (reference) stated for each assay.

IC50, < 4 µM:
CCC1CC(C(=O)OC)C[C@@H](O[C@@H]2O[C@@H](CO)[C@H](O)C(O[C@@H](CC3CCCCC3)C(=O)O)C2NC(C)=O)[C@@H]1OC1O[C@@H](C)[C@H](O)C(O)[C@@H]1O (some centres unmarked) [Compound 22], CCC1CC(C(=O)OC)C[C@@H](O[C@@H]2OC(CO)[C@H](O)C(O[C@@H](CC3CCCCC3)C(=O)O)C2NC(=O)C(F)(F)F)C1OC1O[C@@H](C)C(O)C(O)[C@@H]1O (some centres unmarked) [Compound 27], CCC1CC(C(=O)NCCNC(=O)c2nc(C)cs2)C[C@@H](O[C@@H]2OC(CO)[C@H](O)C(O[C@@H](CC3CCCCC3)C(=O)O)C2NC(C)=O)C1OC1O[C@@H](C)C(O)C(O)[C@@H]1O (some centres unmarked) [Compound 28], CCC1CC(C(=O)NCCNC(=O)Cc2cc(=O)oc3cc(O)ccc23)C[C@@H](O[C@@H]2OC(CO)[C@H](O)C(O[C@@H](CC3CCCCC3)C(=O)O)C2NC(C)=O)C1OC1O[C@@H](C)C(O)C(O)[C@@H]1O (some centres unmarked) [Compound 29], CCC1CC(C(=O)NCCNC(=O)CCOCCOCCOCCOCCOCCOCCOCCOCCOCCOCCOCCOC)CC(OC2OC(CO)C(O)C(OC(CC3CCCCC3)C(=O)N(C)C)C2NC(C)=O)C1OC1OC(C)C(O)C(O)C1O (centres unmarked) [Compound 45]
